Article PMC2829272 (Biochemical pharmacology, 2008)
pKd: −log10 of the molar value.

Target: T1, CYP26A1 (Homo sapiens, UniProt O43174)
T1 sequence (O43174 1-497): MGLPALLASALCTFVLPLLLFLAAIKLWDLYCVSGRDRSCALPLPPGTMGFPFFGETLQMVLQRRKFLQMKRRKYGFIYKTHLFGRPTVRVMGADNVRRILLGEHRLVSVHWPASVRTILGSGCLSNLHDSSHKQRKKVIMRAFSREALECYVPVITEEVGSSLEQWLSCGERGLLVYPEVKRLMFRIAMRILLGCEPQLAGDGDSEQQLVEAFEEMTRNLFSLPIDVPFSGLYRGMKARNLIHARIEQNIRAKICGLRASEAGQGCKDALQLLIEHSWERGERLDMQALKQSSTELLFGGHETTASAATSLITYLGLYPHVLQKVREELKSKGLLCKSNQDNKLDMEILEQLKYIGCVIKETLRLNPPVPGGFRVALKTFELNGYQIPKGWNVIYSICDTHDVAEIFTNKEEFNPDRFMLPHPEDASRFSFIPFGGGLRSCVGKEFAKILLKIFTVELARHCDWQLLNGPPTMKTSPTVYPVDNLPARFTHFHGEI
Assay: spectral titration
Format: binding

Structure (SMILES): CC1=C(/C=C/C(C)=C/C=C/C(C)=C/C(=O)O)C(C)(C)CCC1 [RA, all-trans-retinoic acid]
- pKd: 6.28
